Columns and labels:
[1] = tested on: Winterweizens Sorte Mironowskaya 808; assay: Field test of gametocidal activity (anther sterilisation), winter wheat Mironowskaya 808; type: in vivo, Weizen; details: Mironowskaya 808, period V of organogenesis, 1% aqueous emulsion, 10 kg/ha
[2] = tested on: Sommerweizens Sorte Moskowskaya 35; assay: Field test of gametocidal activity, spring wheat Moskowskaya 35; type: in vivo, Weizen; details: Moskowskaya 35, period V, 1% aqueous emulsion, 6 kg/ha in 600 l water
diploidem Roggen Chulpan = assay: Field test of gametocidal activity, diploid rye Chulpan; type: in vivo; details: Chulpan, period V, 1% aqueous emulsion, 10 kg/ha
[3] = tested on: diploidem Roggen Kharkovskaya 55; assay: Field test of gametocidal activity, diploid rye Kharkovskaya 55; type: in vivo; details: Kharkovskaya 55, period V, 1% aqueous emulsion, 6 kg/ha in 600 l water
Excerpt: (§1) Die gametozide Aktivität der erfindungsgemäßen Sterilisationsmittel war in Feldversuchen in verschiedenen bodenklimatischen Zonen mit Teilstücken von 10 m^2 Größe in dreibis viermaliger Wiederholung festgestellt. Jedes Sterilisationsmittel wurde mindenstens 5 Jahre lang geprüft.
(§2) Die Entwicklung der Perioden der Organogenese wird zytologisch überwacht. Die Behandlung von Pflanzen mit dem Sterilisationsmittel erfolgt am Anfang der fünften Periode der Organogenese nach Kupermann.
(§3) Mit dem Ährenschieben verwirklicht man die Isolierung von Hauptähren und anderen Stockwerken in Pergametbeuteln. Bei Weizen und Tritikale werden Einzelisolatoren benutzt. Bei Roggen schließt man je 1 Ähre von […] verschiedenen nebeneinander befindlichen Pflanzen unter einen gemeinsamen Isolator ein. Bei Hirse wird jede Rispe getrennt isoliert. Der Sterilitätsprozentsatz (X) für Weizen, Roggen, Tritikale und Hirse wird nach der Formel [formula] ermittelt.
(§4) Die Kornzahl in nicht isolierten Ähren von Kontrollpflanzen wird bedingt für 100 % Ansetzen bei freier Bestäubung angenommen.
(§5) Um zuverlässige Angaben zu erhalten, verwendet man 20 bis 25 Isolatoren je Wiederholung für Weizen und Tritikale, 10 bis 15 Isolatoren jeder Wiederholung für Roggen und Hirse.
Pflanzen von diploidem Roggen Kharkovskaya 55 werden in der V. Periode der Organogenese mit einer l%igen wäßrigen Emulsion von 1,1,3-Tribrompropan, 1,2,3-Tribrompropan, 1,2-Dibrompropan, 1,1,3-Tribrom-3-chlorpropan, 1,2--Dibrom-3-chlorpropan, 1,1,1,3-Tetrabromheptan, 1,1,3-Tribromheptan bzw. 1,2-Dibromheptan behandelt. Die Emulsion enthält 0,5 Masse% C12-C14-Kalziumalkylbenzolsulfonat und 0,01 Masse% Dimethylformamid als Adjuvans. Der Verbrauch an Präparat beträgt 6 kg/ha bei 600 1 Wasserdurchsatz. Die Prüfergebnisse sind in der Tabelle 13 angegeben. Die gleichen Ergebnisse sind bei der Behandlung von diploidem Roggen Kharkovskaya 55 in der VI. Periode der Organogenese erhalten.

[4] = tested on: Hirse Sorte Mironovskoye 94; assay: Field test of gametocidal activity, millet Mironovskoye 94; type: in vivo; details: Mironovskoye 94, period V, 1% aqueous emulsion, 6 kg/ha in 600 l water
Excerpt: as §1, §2, §3, §4, §5
Pflanzen der Hirse Sorte Mironovskoye 94 werden in der V.Periode der Organogenese mit einer 1%igen wäßrigen Emulsion von 1,1,3-Tribrompropan, 1,2,3-Tribrompropan, 1,2-Dibrompropan, 1,2-Dibrom-3-chlorpropan, 1,3-Dibrompropan, 1,1,1,3-Tetrabromheptan, 1,1,3-Tribromheptan, 1,2-Dibromheptan behandelt. Die Emulsion enthält 0,5 Masse% C12-C14--Kalziumalkylbenzolaulfonat und 0,01 Masse% Dimethylsulfoxid als Adjuvans. Der Verbrauch an Präparat beträgt 6 kg/ha bei 600 1 Wasserdurchsatz. Die Prüfergebnisse sind in der Tabelle 15 angegeben. Die gleichen Ergebnisse sind bei der Behandlung der Hirse Sorte Mironovskoye 94 in der VI. Periode der Organogenese erhalten.

[5] = read-out: Prozentsatz der Sterilität

Question: What does the source list for `CCCCC(Br)CC(Br)Br` (centres unmarked) [Beispiel 10, 1,1,3-Tribromheptan]?
Answer: Kornzahl der Ähre bei freier Bestäubung [1]: 40,0; Kornzahl der Ähre im Isolator [1]: 0,6; Prozentsatz des Ansetzens von Samen bei freier Bestäubung ([1]; control = 100): 96,2%; pest or weed control at 1 %, 10000 g/ha ([1]; read-out: Prozentsatz der Sterilität %): 98.4%; Kornzahl der Ähre bei freier Bestäubung [2]: 36,2; Kornzahl der Ähre im Isolator [2]: 0,1; Prozentsatz des Ansetzens von Samen bei freier Bestäubung ([2]; control = 100): 94,7%; percent sterility at 6000 g/ha [2, 5]: 99.8%; Kornzahl der Ähre bei freier Bestäubung (diploidem Roggen Chulpan): 46,3; Kornzahl der Ähre im Isolator (diploidem Roggen Chulpan): 0,3; Prozentsatz des Ansetzens von Samen bei freier Bestäubung (diploidem Roggen Chulpan; control = 100): 92,4%; percent sterility at 10000 g/ha (diploidem Roggen Chulpan; [5]): 99.4%; Kornzahl der Ähre bei freier Bestäubung [3]: 36,2; Kornzahl der Ähre im Isolator [3]: 0,1; Prozentsatz des Ansetzens von Samen bei freier Bestäubung ([3]; control = 100): 97,8%; percent sterility at 6000 g/ha [3, 5]: 99.8%; Kornzahl der Rispe bei freier Bestäubung [4]: 180,1; Kornzahl der Rispe im Isolator [4]: 0,0; Prozentsatz des Ansetzens von Samen bei freier Bestäubung ([4]; control = 100): 73,6%; percent sterility at 6000 g/ha [4, 5]: 100%
